The results in this text go back to patent US20240287054A1, “COMPOUNDS THAT BIND NON-CANONICAL G-QUADRUPLEX STRUCTURES AND METHODS OF MAKING AND USING THE SAME” (The U.S.A., as Represented by the Secretary, Department of …, priority 2021, published 2024).

The test system of test [1] is MYCN G4 DNA. As to the kind of experiment: Circular dichroism (CD) thermal melting assay of MYCN G4. The settings on record: 10 mM sodium phosphate pH 7.0, 5 mM KCl, 5 μM DNA. The test is classed as binding, human. The procedure:
For thermal melt assay, MYCN oligonucleotides were prepared in a low KCl buffer (10 mM Tris, pH7.0, 5 mM KCl) at 5 μM concentration. To test the stabilization effect, G4 samples were incubated with and without 20 μM compound (final solution containing 5% DMSO). Then a total of 300 μL solution was added in a cuvette and heated from 20° C. to 95° C. in a CD spectrometer with an interval of 1° C. To calculate the melting temperature (Tm), the peak of CD spectrum at 263 nm was tracked, and […] vs temperature was plotted and fitted using a nonlinear sigmoidal dose-response model with a variable slope in GraphPad Prism 8 software. The shifting of melting temperature (ΔTm) was calculated using Tm (compound)−Tm (DMSO).
For CD melting assay, MYCN oligonucleotides were prepared in KCl buffer (10 mM sodium phosphate, pH7.0, 5 mM KCl) at 5 μM concentration. To test the stabilization effect of the compounds, MYCN G4 DNA samples were mixed with/without the compound (final solution containing 5% DMSO) at designed concentration. Then a total of 300 μL solution was added in a cuvette and heated from 20 to 80° C. in a CD spectrometer with an interval of 1° C. To calculate the melting temperature (Tm), the peak of CD spectrum at 263 nm was tracked, and […] vs temperature was plotted and fitted using a nonlinear sigmoidal dose-response model with a variable slope in GraphPad Prism 8 software.

For test [2], the system named is MYCN G4 DNA. Description: Surface plasmon resonance (SPR) with immobilized biotinylated MYCN G4 DNA. The test is classed as binding, human. Here is the method:
Surface plasmon resonance (SPR) analysis. The SPR binding assays were performed with a BIAcore 3000 (GE Healthcare) instrument. A CM5 SPR biochip was loaded into the system and primed with running buffer (10 mM Tris, pH7.0, 100 mM KCl, 0.005% Tween 20, 5% DMSO) with a flow rate of 5 μL/min. Then both Flow Cell (Fc) 1 and 2 were activated by EDC/NHS (0.4 M/0.1 M) aqueous solution for 15 min, followed with an injection of streptavidin (SA) solution (0.2 mg/mL in 10 mM sodium acetate buffer, pH4.5) for 30 minutes. After the immobilization amount of SA reached 8,000-10,000 RU, the surface was deactivated by flowing 1 M Ethanolamine aqueous solution (pH 8.5) for 10 min and regenerated with 10 mM NaOH for 2 min to remove the unbound SA. In the meantime, biotinylated MYCN G4 DNA was prepared at 5 μM in the annealing buffer and heated up to 95° C. for 5 min and slowly cooled down. After annealing, a total of 150 μL solution was injected in the Fc 2 of SPR system for 30 min to immobilize DNA onto the chip surface. The small molecule solutions were tested once the baseline was stable.
To detect the binding signal as well as the binding affinity, a higher flowing rate (25 μL/min) was used in both Fc 1 (reference) and Fc 2 (DNA). Each of the compound solution was prepared at 20× designed the concentrations in DMSO, and then diluted into non-DMSO running buffer, resulting in a final concentration of 5% DMSO. Then, a total of 50 μL compound solution was injected in Fc 1-2 flow path for 120 s for association, followed with 200 s running of buffer for dissociation. An injection of 50 μL regeneration buffer (1 M KCl) could be performed between two samples if necessary. The final binding curve was obtained by reference subtraction. To determine the binding affinity (KD), a series of diluted compound solutions were injected and KD was calculated by BIAevaluation 4.0 software (GE Healthcare) using Langmuir 1:1 binding model.
In this example, SPR binding assays were performed to analyze binding activity of representative bivalent compounds of the present disclosure. The compounds of this example included a non-canonical binder component and a G4 stacker component. A BIAcore 3000 (GE Healthcare) instrument was used. A CM5 SPR biochip was used and primed with running buffer (10 mM Tris, pH7.0, 100 mM KCl, 0.005% Tween 20, 5% DMSO). To immobilize the compounds onto the chip surface, the flow rate was set as 5 μL/min. Then the carboxylated dextran on the chip surface was activated by EDC/NHS (0.4 M/0.1 M) aqueous solution for 15 min, followed with an injection of streptavidin (SA) solution (0.2 mg/mL in 10 mM sodium acetate buffer, pH 4.5) for 30 minutes. After the immobilization amount of SA, the surface was quenched by injecting 1 M ethanolamine (EA) aqueous solution (pH 8.5) for 10 min and regenerated with 10 mM NaOH for 2 min to remove the physical adsorption. Furthermore, biotinylated MYCN G4 DNA was prepared at 5 μM in the annealing buffer and heated up to 95° C. for 5 min followed with slowly cooling down to room temperature within 1 h. After annealing, a total of 150 μL solution was injected in the Fc 2 of SPR system for 30 min to immobilize DNA onto the chip surface. The compound solutions were then tested once the baseline was stable.
To detect the binding signal as well as the binding affinity, a higher flowing rate (25 μL/min) was used in both Fc 1 (blank) and Fc 2 (target). Each of the compound solutions was prepared at 20× designed the concentrations in DMSO, and then diluted into non-DMSO running buffer, resulting in a final concentration of 5% DMSO. Then, a total of 50 μL compound solution was injected in Fc 1-2 flow path for 120 s for association, followed with 200 s running of buffer for dissociation. An injection of 50 μL regeneration buffer (1 M KCl) could be performed between two samples if necessary. The final binding curve was obtained by referencing the blank channel (Fc 1). […]

The test system of another test is dsDNA. Description: SPR binding to dsDNA. Particulars: up to 5 μM compound injection.
The target in the next test is MYCN hairpin-G4 DNA. As to the kind of experiment: FIA using compound fluorescence (Ex 340/Em 500 nm), titration with unlabeled MYCN G4 DNA. It is filed as binding, human. Particulars: 100 nM compound titrated with folded unlabeled MYCN G4. Here is the method:
In this study, FIA was used for validating the bindings between certain bivalent and MYCN G4 oligos. To measure the binding affinity, a solution of each compound was prepared in triplicate in a 96 well-plate (Costar, black side clear bottom), resulting in a final concentration of 100 nM (5% final DMSO in the working solution). Unlabeled MYCN G4 DNA was folded based on the above-mentioned annealing method, then added into the well plate resulting in different concentrations by a seral dilution. The plate was incubated at room temperature for 30 min, followed by centrifuging at 500 rpm for 2 minutes. The fluorescence intensity was then quantitatively recorded by a Synergy Mx microplate reader (BioTek) at Ex 340 nm/Em 500 nm. The fluorescence intensities were then normalized, and the binding affinity was calculated by fitting the curve using one-site total model in GraphPad Prism 8.3.1 software.

Turning to `COc1ccc2nc3cc(Cl)ccc3c(NCCCNCCCl)c2c1` [Acridine ICR 191, reference compound], the “ΔTm of MYCN G4” value with MYCN G4 DNA [1] was determined as 4.6 °C. For the same compound, in the test with MYCN G4 DNA [2] (MYCN G4 binding curves), the SPR binding kinetics entry is recorded as “fast-on/off”. Moreover, the Kd on MYCN G4 DNA [2] (MYCN hairpin G4, SPR titration, read-out: KD by SPR) stood at 821 ± 184 nM; on MYCN hairpin-G4 DNA, 1040 ± 150 nM. The “binding to dsDNA on SPR” value with dsDNA is recorded as “dose-dependent binding signals”.
